Reference: patent publication US20240090503A1, “FUNGICIDAL OXADIAZOLES AND THEIR MIXTURES” (FMC CORPORATION, priority 2020, published 2024)
Where two headings read alike, the source gives them in different places.

Tests used:
Format in all cases: in vivo
[1] = test system: Phakopsora pachyrhizi (the causal agent of Asian soybean rust); assay: Test E: compounds alone and mixtures sprayed on soybean seedlings, Asian soybean rust, observed and Colby-expected disease control; set-up: key to Test E Obsd: 100 = 100% disease control, 0 = no disease control; settings: for pest or weed control at 161.74 ppm: 161.740 ppm
Text: The general protocol for preparing test compositions for TEST E was as follows: Compound 316, Compound 376, Compound 225, Compound 229, Compound 257, Compound 394, Compound 506, Compound 507, Compound 508, Compound 509, Compound 511, Compound 512, methyl N-[[5-[1-[2,6-difluoro-4-(1-methylethyl)phenyl]-1H-pyrazol-3-yl]-2-methylphenyl]methyl]carbamate (b54.11a), methyl N-[[5-[l-(4-cyclopropyl-2,6-difluorophenyl)-1H-pyrazol-3-yl]-2-methylphenyl]methyl]carbamate (b54.11d), ethyl 1-[[4-[[(1Z)-2-ethoxy-3,3,3-trifluoro-1-propen-1-yl]oxy]phenyl]methyl]-1H-pyrazole-4-carboxylate (b54.12a), ethyl 1-[[4-[[2-(trifluoromethyl)-1,3-dioxolan-2-yl]methoxy]phenyl]methyl]-1H-pyrazole-4-carboxylate (b54.13a), azoxystrobin, benzovindiflupyr, bixafen, chlorothalonil, cyproconazole, epoxiconazole, fenpropidin, fenpropimorph, fluindapyr, flutriafol, fluxapyroxad, inpyrfluxam, metominostrobin, picoxystrobin, prothioconazole, pydiflumetofen, pyraclostrobin, tebuconazole and trifloxystrobin were obtained as unformulated, technical-grade materials. Copper hydroxide and mancozeb was obtained as a formulated product marketed under the trademarks KOCIDE 3000 and MANZATE, respectively. Unformulated materials were first dissolved in acetone and then suspended at the desired concentration (in ppm) in acetone and purified water (50/50 mixture by volume) containing 250 ppm of the surfactant Trem® 014 (polyhydric alcohol esters). Formulated materials were dispersed in sufficient water to give the desired concentration, and neither organic solvent nor surfactant was added to the suspension. The resulting test mixtures were then used in TEST E. The tests were run on four individual plants and the results reported as the mean average of the four plants.
The presence of a synergistic effect between two active ingredients can be established with the aid of the Colby equation (see Colby, S. R. “Calculating Synergistic and Antagonistic Responses of Herbicide Combinations”, Weeds, (1967), 15, 20-22):
Using the method of Colby, the presence of a synergistic interaction between two active ingredients is established by first calculating the predicted activity, p, of the mixture based on activities of the two components applied alone. If p is lower than the experimentally established effect, synergism has occurred. In the equation above, A is the fungicidal activity in percentage control of one component applied alone at rate x. The B term is the fungicidal activity in percentage control of the second component applied at rate y. The equation estimates p, the expected fungicidal activity of the mixture of A at rate x with B at rate y if their effects are strictly additive and no interaction has occurred.
The test mixture was sprayed to the point of run-off on soybean seedlings. The following day the seedlings were inoculated with a spore suspension of Phakopsora pachyrhizi (the causal agent of Asian soybean rust) and incubated in a saturated atmosphere at 22° C. for 24 h and then moved to a growth chamber at 22° C. for 8 days, after which time visual disease ratings were made.
Results for Test E are given below in Tables A-1 through K-2. Each table corresponds to a set of evaluations performed together at the same time. In each table, a rating of 100 indicates 100% disease control and a rating of 0 indicates no disease control (relative to the controls). Columns labeled “Obsd” indicate the average of results observed from test run on four individual plants. Columns labeled “Exp” indicate the expected value for each treatment mixture using the Colby equation, as described above.

[2] = test system: Phakopsora pachyrhizi (the causal agent of Asian soybean rust); assay: Test A: preventive spray on soybean seedlings, Asian soybean rust, visual disease rating; settings: Phakopsora pachyrhizi, 216 h, soybean seedlings, 100 = 100% disease control, 0 = no control
Procedure, shortened: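 Preventive test: soybean seedlings received a run-off spray of compound suspended at the set ppm in 50/50 acetone/water plus 250 ppm PEG400, and one day later a P. pachyrhizi spore inoculum. Visual scoring (0 none to 100 full disease control) followed 24 h saturated incubation and 8 days' growth chamber, both at 22° C.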

[3] = test system: Zymoseptoria tritici (the causal agent of wheat leaf blotch); assay: Test B: preventive spray on wheat seedlings, wheat leaf blotch, visual disease rating; settings: Zymoseptoria tritici, 456 h; test suspension 250 ppm; wheat seedlings
Procedure, shortened: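 This is a preventive test: spray application preceded Zymoseptoria tritici spore inoculation by one day. Test suspensions were in acetone/water with 250 ppm PEG400 surfactant, at the listed ppm rate. After 48 h saturated humidity at 24° C and 17 days at 20° C, visual ratings scored control from 0 to 100%.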

[4] = test system: Puccinia recondita f. sp. tritici (the causal agent of wheat leaf rust); assay: Test C: preventive spray on wheat seedlings, wheat leaf rust, visual disease rating; settings: Puccinia recondita, 168 h, wheat seedlings
Procedure, shortened: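 Wheat seedlings sprayed to run-off with compound in acetone/water (50/50) with 250 ppm PEG400, then inoculated with spores the following day. After 24 h saturated humidity at 20° C. and 6 days in growth chamber at 20° C., disease rated visually as % control relative to untreated controls.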

[5] = Phakopsora pachyrhizi, Compound 508 alone, read-out: Test E Obsd
[6] = Phakopsora pachyrhizi, applied alone, read-out: Test E Obsd
[7] = Table B-1, component (b) alone: bixafen 11.327, fluxapyroxad 2.757, fluindapyr 8.820 ppm
[8] = Table B-1, component (b) alone: bixafen 19.525, fluxapyroxad 4.748, fluindapyr 15.230 ppm
[9] = Table B-2, component (b) alone: bixafen 11.327, fluxapyroxad 2.757, fluindapyr 8.820 ppm
[10] = Table B-2, component (b) alone: bixafen 19.525, fluxapyroxad 4.748, fluindapyr 15.230 ppm
[11] = Phakopsora pachyrhizi, fenpropidin alone, read-out: Test E Obsd

For `Cn1cc(C(=O)Nc2cccc3c2[C@@H]2CC[C@H]3C2=C(Cl)Cl)c(C(F)F)n1` (racemic) [benzovindiflupyr, reference compound], the “Test E Obsd (disease control rating)” value ([1]; Table F-1, component (b) alone: benzovindiflupyr 0.606, prothioconazole 10.165, chlorothalonil 138.129 ppm) was 67%, the “Test E Obsd (disease control rating)” value ([1]; Table F-1, component (b) alone: benzovindiflupyr 0.980, prothioconazole 16.339, chlorothalonil 222.081 ppm) was 67% and the “Test E Obsd (disease control rating)” value ([1]; Table F-2, component (b) alone: benzovindiflupyr 0.606, prothioconazole 10.165, chlorothalonil 138.129 ppm) was 67%. The “Test E Obsd (disease control rating)” value ([1]; Table F-2, component (b) alone: benzovindiflupyr 0.980, prothioconazole 16.339, chlorothalonil 222.081 ppm) was 67%, the “Test E Obsd” value ([1]; applied alone, 0.606 ppm) was 51 and the “Test E Obsd” value ([1]; applied alone, 0.980 ppm) was 68.

In the case of `O=C(NCC(F)F)c1coc(Cc2ccc(-c3noc(C(F)(F)F)n3)cc2)n1` [Compound 225, N-(2,2-difluoroethyl)-2-[[4-[5-(trifluoromethyl)-1,2,4-oxadiazol-3-yl]phenyl]methyl]-4-oxazolecarboxamide], the pest or weed control at 10 µg/mL ([2]; test suspension 10 ppm, read-out: Test A disease control rating) is reported as 100%, the pest or weed control at 250 µg/mL [3] is reported as 99% and the pest or weed control at 10 µg/mL ([4]; test suspension 10 ppm, read-out: Test C disease control rating) is reported as 100%. It also gave a pest or weed control at 0.589 ppm ([1]; Phakopsora pachyrhizi, applied alone, 0.589 ppm, read-out: Test E Obsd) of 68%.

Work on `CCNC(=O)c1cnn(COCc2ccc(-c3noc(C(F)(F)F)n3)cc2)c1` [Compound 508, N-ethyl-1-[[[4-[5-(trifluoromethyl)-1,2,4-oxadiazol-3-yl]phenyl]methoxy]methyl]-1H-pyrazole-4-carboxamide] yielded a pest or weed control at 10 ppm ([2]; 10 ppm test suspension) of 100%, a pest or weed control at 10 ppm ([4]; 10 ppm test suspension, 100 = 100% disease control, 0 = no control) of 100% and a pest or weed control at 0.855 ppm [1, 5] of 0%. It also gave a pest or weed control at 1.716 ppm [1, 5] of 52%, a pest or weed control at 0.855 ppm [1, 6] of 23% and a pest or weed control at 1.716 ppm [1, 6] of 60%.

With `CO/C=C(/C(=O)OC)c1ccccc1Oc1cc(Oc2ccccc2C#N)ncn1` [azoxystrobin, reference compound] the “Test E Obsd (disease control rating)” value ([1]; Table D-1, component (b) alone: cyproconazole 37.333, azoxystrobin 95.873, trifloxystrobin 20.511 ppm) was 70%, the “Test E Obsd (disease control rating)” value ([1]; Table D-1, component (b) alone: cyproconazole 64.883, azoxystrobin 169.226, trifloxystrobin 35.310 ppm) was 88% and the “Test E Obsd (disease control rating)” value ([1]; Table D-2, component (b) alone: cyproconazole 37.333, azoxystrobin 95.873, trifloxystrobin 20.511 ppm) was 70%. For the same compound, the “Test E Obsd (disease control rating)” value ([1]; Table D-2, component (b) alone: cyproconazole 64.883, azoxystrobin 169.226, trifloxystrobin 35.310 ppm) was 88%.

For `Cn1cc(C(=O)Nc2ccc(F)cc2-c2ccc(Cl)c(Cl)c2)c(C(F)F)n1` [bixafen, reference compound], the “Test E Obsd (disease control rating)” value [1, 7] was 54%, the “Test E Obsd (disease control rating)” value [1, 8] was 55% and the “Test E Obsd (disease control rating)” value [1, 9] was 54%. For the same compound, the “Test E Obsd (disease control rating)” value [1, 10] was 55%.

`N#Cc1c(Cl)c(Cl)c(Cl)c(C#N)c1Cl` [chlorothalonil, reference compound] showed a pest or weed control at 138.129 ppm ([1]; Phakopsora pachyrhizi, applied alone, 138.129 ppm, read-out: Test E Obsd) of 76% and a pest or weed control at 222.081 ppm ([1]; Phakopsora pachyrhizi, applied alone, 222.081 ppm, read-out: Test E Obsd) of 88%.

In the case of `CC(Cc1ccc(C(C)(C)C)cc1)CN1CCCCC1` (centres unmarked) [fenpropidin, reference compound], the pest or weed control at 78.393 ppm [1, 6] is reported as 0%, the pest or weed control at 161.74 ppm [1, 6] is reported as 52% and the pest or weed control at 78.393 ppm [1, 11] is reported as 0%. For the same compound, the pest or weed control at 161.74 ppm [1, 11] was 52%.

In the case of `CC1CC(C)(C)c2c(F)ccc(NC(=O)c3cn(C)nc3C(F)F)c21` (centres unmarked) [fluindapyr, reference compound], the “Test E Obsd (disease control rating)” value [1, 7] is reported as 61%, the “Test E Obsd (disease control rating)” value [1, 8] is reported as 79% and the “Test E Obsd (disease control rating)” value [1, 9] is reported as 61%. For the same compound, the “Test E Obsd (disease control rating)” value [1, 10] was 79%.

With `Cn1cc(C(=O)Nc2ccccc2-c2cc(F)c(F)c(F)c2)c(C(F)F)n1` [fluxapyroxad, reference compound] the “Test E Obsd (disease control rating)” value [1, 7] was 19%, the “Test E Obsd (disease control rating)” value [1, 8] was 52% and the “Test E Obsd (disease control rating)” value [1, 9] was 19%. The “Test E Obsd (disease control rating)” value [1, 10] was 52%.

In the case of `CO/C=C(/C(=O)OC)c1ccccc1COc1cccc(C(F)(F)F)n1` [picoxystrobin, reference compound], the “Test E Obsd (disease control rating)” value ([1]; Table A-1, component (b) alone: b54.13a 1.422, b54.12a 0.303, b54.11a 0.403, picoxystrobin 20.596 ppm) is reported as 73%, the “Test E Obsd (disease control rating)” value ([1]; Table A-1, component (b) alone: b54.13a 2.276, b54.12a 0.489, b54.11a 0.652, picoxystrobin 38.865 ppm) is reported as 75% and the “Test E Obsd (disease control rating)” value ([1]; Table A-2, component (b) alone: b54.13a 1.422, b54.12a 0.303, b54.11a 0.403, b54.11d 0.346, picoxystrobin 20.596 ppm) is reported as 73%. The “Test E Obsd (disease control rating)” value ([1]; Table A-2, component (b) alone: b54.13a 2.276, b54.12a 0.489, b54.11a 0.652, b54.11d 0.764, picoxystrobin 33.865 ppm) was 75%, the “Test E Obsd” value ([1]; applied alone, 20.596 ppm) was 28 and the “Test E Obsd” value ([1]; applied alone, 33.865 ppm) was 43. The “Test E Obsd” value ([1]; applied alone, 33.875 ppm) was 43, the “Test E Obsd” value ([1]; picoxystrobin alone, 20.596 ppm) was 28 and the “Test E Obsd” value ([1]; picoxystrobin alone, 33.865 ppm) was 43.

For `OC(Cc1ccccc1Cl)(Cn1nc[nH]c1=S)C1(Cl)CC1` (centres unmarked) [prothioconazole, reference compound], the pest or weed control at 10.165 ppm ([1]; Phakopsora pachyrhizi, applied alone, 10.165 ppm, read-out: Test E Obsd) was 34% and the pest or weed control at 16.339 ppm ([1]; Phakopsora pachyrhizi, applied alone, 16.339 ppm, read-out: Test E Obsd) was 56%.

With `CON(C(=O)c1cn(C)nc1C(F)F)C(C)Cc1c(Cl)cc(Cl)cc1Cl` (centres unmarked) [pydiflumetofen, reference compound] the “Test E Obsd (disease control rating)” value ([1]; Table E-1, component (b) alone: epoxiconazole 46.795, pydiflumetofen 70.950 ppm) was 0%, the “Test E Obsd (disease control rating)” value ([1]; Table E-1, component (b) alone: epoxiconazole 89.631, pydiflumetofen 135.850 ppm) was 73% and the “Test E Obsd (disease control rating)” value ([1]; Table E-2, component (b) alone: epoxiconazole 46.795, pydiflumetofen 70.950 ppm) was 0%. The “Test E Obsd (disease control rating)” value ([1]; Table E-2, component (b) alone: epoxiconazole 89.631, pydiflumetofen 135.850 ppm) was 73%, the “Test E Obsd (disease control rating)” value ([1]; Table G-1, component (b) alone: pydiflumetofen 41.364, pyraclostrobin 45.860, metominostrobin 29.673 ppm) was 49% and the “Test E Obsd (disease control rating)” value ([1]; Table G-1, component (b) alone: pydiflumetofen 128.793, pyraclostrobin 137.503, metominostrobin 86.003 ppm) was 36%. For the same compound, the “Test E Obsd (disease control rating)” value ([1]; Table G-2, component (b) alone: pydiflumetofen 41.364, pyraclostrobin 45.860, metominostrobin 29.673 ppm) was 49% and the “Test E Obsd (disease control rating)” value ([1]; Table G-2, component (b) alone: pydiflumetofen 128.793, pyraclostrobin 137.503, metominostrobin 86.003 ppm) was 36%.

With inpyrfluxam [reference compound] the “Test E Obsd” value ([1]; inpyrfluxam alone, 0.448 ppm) was 56 and the “Test E Obsd” value ([1]; inpyrfluxam alone, 1.059 ppm) was 79.
